Laboratory results taken from patent publication US12338203B2 (TAISHO PHARMACEUTICAL CO., LTD., priority 2019, dated 2025).

What follows are compounds tested against T1, human LPAR1 (Homo sapiens, UniProt Q92633) (assay: Test Example 1: antagonism against response of LPA-induced increase in intracellular Ca2+ concentration in RH7777 cells stably expressing human LPAR1). Settings: RH7777 cells stably expressing human LPAR1; Fluo-4 fluorescence, FDSS6000; read-out: IC50 value (concentration producing 50% antagonism against response of LPA-induced increase in intracellular Ca2+ concentration) (converted).
T1 construct: expressed in transfected cells
Format: cell-based
Method in brief: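 RH7777 cells stably transfected with human LPAR1 were preincubated with test compound 30 min at 37 °C in HBSS/20 mM HEPES/probenecid/0.05% BSA buffer, pH 7.4, then LPA-stimulated.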

T1 sequence (Q92633 whole entry): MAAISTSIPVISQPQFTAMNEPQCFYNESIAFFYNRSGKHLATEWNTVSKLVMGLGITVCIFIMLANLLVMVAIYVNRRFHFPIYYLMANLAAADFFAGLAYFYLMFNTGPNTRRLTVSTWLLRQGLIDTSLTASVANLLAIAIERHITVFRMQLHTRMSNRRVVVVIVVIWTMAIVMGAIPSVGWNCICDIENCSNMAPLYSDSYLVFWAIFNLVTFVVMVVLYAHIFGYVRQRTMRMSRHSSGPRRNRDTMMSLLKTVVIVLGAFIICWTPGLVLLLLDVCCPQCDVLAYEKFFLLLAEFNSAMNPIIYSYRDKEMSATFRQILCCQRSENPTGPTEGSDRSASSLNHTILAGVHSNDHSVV

| SMILES | IC50 |
| --- | --- |
| CCOc1cc([C@@H](C)N(CC/C=C(\C)c2ccccc2)C(=O)NC2(C(=O)O)CC(F)(F)C2)cc(OCC)c1C [Example 4-41] | 4.16 nM |
| CCOc1cc([C@@H](C)N(CCCCc2ccccc2)C(=O)NC2(C(=O)O)CC(N3CCOCC3)C2)cc(OCC)c1C (stereo partly drawn) [Example 1-110] | 20.2 nM |
| CCOc1cc([C@H](C)N(CCCCc2ccccc2)C(=O)NC2(C(=O)O)Cc3ccccc3C2)cc(OCC)c1C [Example 1-124, 2-({[(1S)-1-(3,5-Diethoxy-4-Methylphenyl)Ethyl](4-Phenylbutyl) Carbamoyl}Amino)-2,3-Dihydro-1H-Indene-2-Carboxylic Acid] | 237 nM |
| CC(c1cc(Cl)cc(Cl)c1F)N(CCCCc1ccccc1)C(=O)NC1(C(=O)O)CC(F)(F)C1 (stereo not drawn) [Example 1-80] | 13.1 nM |
| CCOc1cc(C(C)N(CCCCc2ccccc2)C(=O)NC2(C(=O)O)CC(F)(F)C2)cc(OCC)c1C(C)=O (stereo not drawn) [Example 1-29] | 3.12 nM |
| CCOc1c(C(C)=O)ccc([C@@H](C)N(CCCCc2ccccc2)C(=O)NC2(C(=O)O)CCOCC2)c1C [Example 1-156] | 3.68 nM |
| CCOc1cc([C@@H](C)N(CCO[C@@H](C)c2ccccc2)C(=O)N[C@]2(C(=O)O)C[C@@H](OCC)C2)cc(OCC)c1C1CC1 [Example 4-139, cis-1-[([(1R)-1-(4-cyclopropyl-3,5-diethoxyphenyl)ethyl]{2-[(1S)-1-phenylethoxy]ethyl}carbamoyl)amino]-3-ethoxycyclobutane-1-carboxylic acid] | 1.32 nM |
| CCOc1cc(C(C)N(CCCCc2ccccc2)C(=O)NC2CC(CC(=O)O)C2)cc(OCC)c1C (stereo not drawn) [Example 1-148] | 25.5 nM |

Now from value to compound:

| IC50 | SMILES |
| --- | --- |
| 2.59 nM | CCOc1cc([C@@H](C)N(CCO[C@@H](C)c2ccccc2)C(=O)NC2(C(=O)O)CC2)c(Cl)c(OCC)c1C(C)=O [Example 5-31, 1-[([(1R)-1-(4-acetyl-2-chloro-3,5-diethoxyphenyl)ethyl]{2-[(1S)-1-phenylethoxy]ethyl}carbamoyl)amino]cyclopropane-1-carboxylic acid] |
| 0.851 nM | CCOc1cc(C(C)N(CCOCc2ccccc2)C(=O)NC2(C(=O)O)CCOCC2)c(C)c(OCC)c1C1CC1 (stereo not drawn) [Example 5-227] |
| 1.88 nM | COc1cc(C(C)N(CCOCc2ccccc2)C(=O)NC2(C(=O)O)CCC2)c(C)c(OC)c1C1CC1 (stereo not drawn) [Example 5-135] |
| 2.75 nM | CCOc1cc(C(C)N(CCCCc2ccccc2)C(=O)NC2(C(=O)O)CC(OCC)C2)c(Cl)c(OCC)c1C(C)=O (stereo not drawn) [Example 5-209] |
| 3.97 nM | CCOc1cc([C@@H](C)N(CCO[C@H](C)c2ccccc2)C(=O)N[C@]2(C(=O)O)C[C@@H](OC)C2)c(Cl)c(OCC)c1C(C)=O [Example 5-35] |
| 2.85 nM | CCOc1cc(C(C)N(CCOCc2ccccc2)C(=O)NC2(c3nn[nH]n3)CC2)cc(OCC)c1C(C)=O (stereo not drawn) [Example 10-5] |
| 88.3 nM | CCOc1cc(C(C)N(CCCCc2ccccc2)C(=O)NC2(C(=O)NS(C)(=O)=O)CCCC2)cc(OCC)c1C (stereo not drawn) [Example 7-3] |
| 30 nM | COc1cc(C(C)N(CCOCc2ccccc2)C(=O)NC2(C(=O)O)CCOCC2)c(Cl)c(OC)c1C(C)=O (stereo not drawn) [Example 5-174] |
| 1890 nM | CCOc1cc(C(C)N(CCCCc2ccccc2)C(=O)NC2(C(N)=O)CCCC2)cc(OCC)c1C (stereo not drawn) [Example 6-1, 1-({[1-(3,5-Diethoxy-4-Methylphenyl)Ethyl](4-Phenylbutyl) Carbamoyl}Amino)Cyclopentane-1-Carboxamide] |
| 4.74 nM | CCOc1cc([C@@H](C)N(CCO[C@@H](C)c2ccccc2)C(=O)NC2(C(=O)O)CC2)c(C)c(OCC)c1C [Example 5-75] |
| 35.4 nM | CCOc1cc(OCC)cc(C(C)N(CCCCc2ccccc2)C(=O)NC2(C(=O)O)CCCC2)c1 (stereo not drawn) [Example 5-10] |
| 1.99 nM | CCOc1cc(C(C)N(CCO[C@@H](C)c2ccccc2)C(=O)N[C@]2(C(=O)O)C[C@@H](OCC)C2)c(Cl)c(OCC)c1C(C)=O (stereo partly drawn) [Example 5-218] |
| 1.88 nM | CCOc1cc(C(C)N(CCCCc2ccccc2)C(=O)NC2(c3nn[nH]n3)CCC2)cc(OCC)c1C(C)=O (stereo not drawn) [Example 10-6] |
